Earlier results in patent US7718595B2, “Light duty liquid cleaning compositions and methods of manufacture and use thereof comprising organic acids” (priority 2008, dated 2010).

How the values were obtained:
[1] = list category
[2] = not given; remark: listed apart in the source

Compound	pKa	EPA Inert List [1]	solubility in water [2]
CC(O)C(=O)O (centres unmarked) [Lactic acid]	about 3.8	4B	–
sodium xylene sulfonate [SXS]	–	3	–
CCCCCCCCCCCC(=O)NCCC[N+](C)(C)CC(=O)[O-] [Laurylamidopropyl Betaine]	–	3	–
O=C([O-])CN(CCN(CC(=O)[O-])CC(=O)[O-])CC(=O)[O-].[Na+].[Na+].[Na+].[Na+] [Na4EDTA]	–	4B	–
O=P(O)(O)OP(=O)(O)OP(=O)(O)O [Sodium tripolyphosphate]	–	–	about 14 wt-%
O=S(=O)([O-])[O-].[Mg+2] [Mg2SO4]	–	4A	–
CCO [Ethanol]	–	4B	–
